Data: patent EP4714468A1, “METHOD FOR ADMINISTERING MODULATOR TARGETING S1PR1 AND S1PR4” (priority 2023, dated 2024)
Where two headings read alike, the source gives them in different places.

Tests used:
[1] = Phase 1 clinical trial, repeated administration: pharmacokinetics; format: in vivo, healthy adult males
Protocol: (§1) A randomized, double-blind, placebo-controlled, step-escalation, single- and multiple-dose phase 1 clinical trial was conducted to evaluate the safety, tolerability, and pharmacokinetic/pharmacodynamic characteristics of a compound of Chemical Formula 1 (NXC736) after oral administration to healthy adult males.
(§2) The subjects fasted for at least 10 hours before the first administration. Afterwards, the clinical trial drug was administered orally twice a day for 13 days and once on day 14 in a fasting state at around 9:00 AM and 9:00 PM. The administration was performed twice a day for approximately 14 days, and the subjects were discharged on day 21 from the first administration and observed through outpatient visits until day 36. Blood was collected once before administration and at regular intervals after administration, and hematological tests were performed.

[2] = test system: lymphocytes in the peripheral blood stream; assay: Absolute lymphocyte count suppression in healthy rats; format: in vivo, SD rats
[3] = test system: alopecia areata lesion area; assay: C3H/HeJ alopecia areata mouse model; format: in vivo, C3H/HeJ mice; conditions: 3 mg/kg or 10 mg/kg oral twice a day, 12 weeks
Protocol: The efficacy of NXC736 on alopecia areata was evaluated by using the alopecia areata mouse model C3H/HeJ (Jackson Lab, Saeron Bio).
C3H/HeJ mice, 10 to 16 weeks of age, in which alopecia areata was not induced, were divided into two groups: a control group (sterile distilled water administration group) and an NXC736 administration experimental group, and 5 mice per group were randomly assigned. After the lymph node cells were proliferated and injected into the C3H/HeJ mice, the NXC736 administration experimental group was orally administered with 3 mg/kg or 10 mg/kg of NXC736, and the control group was orally administered with the same volume of sterile distilled water twice a day at the same time for 12 weeks. The alopecia areata lesion area and disease free ratio were measured at two-week intervals. The animal breeding room was maintained at a temperature of 23±3°C, a relative humidity of 50±10%, and a 12-hour light and dark cycle, and the experimental animals were bred in isolation boxes (ThreeShine) and were given experimental animal feed and water ad libitum.
After 12 weeks, the circular alopecia lesion area was photographed and quantified by using the Image J program (Version 1.44p).

[4] = in vivo
[5] = Phase 1 clinical trial, single ascending dose (SAD): safety and tolerability; parameters: species or system healthy adult males; conditions: in vivo
Protocol: as §1
The clinical trial drug product is a white, round, film-coated tablet (1 mg, 3 mg tablet) or a yellow, round, film-coated tablet (10, 20 mg, 40 mg, 60 mg, 80 mg tablet) containing the active ingredient (main ingredient) NXC736 and excipients such as diluents, binders, disintegrants, fluidizing agents and glidants. The NXC736 clinical trial drug product was manufactured as an 84 mg film-coated tablet containing 1 mg or 3 mg of the main ingredient, or a 334 mg film-coated tablet containing 10 mg, 20 mg, 40 mg, 60 mg or 80 mg of the main ingredient, and it can be stored at room temperature (1 to 30°C) in an airtight container.
In this clinical trial, a total of 42 subjects were randomly assigned to a single-administration, and a total of 39 subjects completed the study according to the clinical trial protocol. A total of 33 subjects were assigned to a repeated-administration trial, and a total of 32 subjects completed the study according to the clinical trial protocol.
(§3) The subjects were administered a single oral dose of the clinical trial drug on an empty stomach at around 9:00 AM on the day of administration after fasting for at least 10 hours. In the single-administration trial, the subjects were administered the drug and hospitalized for 8 days. After discharge, they were observed through outpatient visits until day 21. Blood was collected once before administration and at regular intervals after administration, and hematological tests were performed.

[6] = test system: lymphocyte-mediated diseases; conditions: alopecia areata, inflammatory bowel disease, interstitial fibrosis and tubular atrophy, focal segmental glomerulosclerosis; Korean patents; cited from earlier work
[7] = Phase 1 clinical trial, single administration: pharmacokinetics; format: in vivo, healthy adult males
Protocol: as §1, §3

[8] = test system: absolute lymphocyte count (ALC); assay: Phase 1 clinical trial, repeated administration: pharmacodynamics by hematological test; format: in vivo, healthy adult males
Protocol: as §1, §2

[9] = test system: absolute lymphocyte count (ALC); assay: Phase 1 clinical trial, single administration: pharmacodynamics by hematological test; format: in vivo, healthy adult males
Protocol: as §1, §3

[10] = test system: Sphingosine-1 Phosphate (S1P) receptor; conditions: background art statement; cited from earlier work
T lymphocytes = conditions: through the suppression of T lymphocytes; cited from earlier work

## CCCCCCCCCCn1cc(CCC(N)(CO)CO)nn1 [NXC736]
[1]; repeated administration
  accumulation at steady state compared to the first administration: approximately twice
[1]; repeated administrations
  dose proportionality of Cmax,ss and AUCtau,ss: confirmed
[2]; 5 mg/kg oral twice a day, 4 hours after the first administration
  lymphocytes suppressed by: up to 78%
[2]; 5 mg/kg oral twice a day, 4 hours after the second administration (16 hours after the first)
  lymphocytes suppressed by: approximately 90%
[2]; 5 mg/kg oral twice a day, 24 hours
  lymphocytes recovered to: approximately 50%
[2]; 10 mg/kg oral twice a day, 4 hours after the first administration
  lymphocytes suppressed by: up to 83%
[2]; 10 mg/kg oral twice a day, 4 hours after the second administration (16 hours after the first)
  lymphocytes suppressed by: up to 94%
[2]; 10 mg/kg oral twice a day, up to 24 hours
  lymphocyte suppression effect maintained: about 80%
[2]; 10 mg/kg oral twice a day, up to 36 hours
  lymphocyte suppression effect maintained: about 70%
[2]; 20 mg/kg oral once a day, 12 hours
  lymphocytes suppressed by: up to 92%
[2]; 20 mg/kg oral once a day, 24 hours
  lymphocytes recovered to: 60%
[2]; 20 mg/kg oral once a day, 48 hours
  lymphocytes recovered to: 100%
[2]; 5 or 10 mg/kg BID vs 20 mg/kg QD
  lymphocyte suppression effect, twice a day vs once a day: superior when administered twice a day even at a lower dose compared to when administered once a day
[3]
  circular alopecia lesion area compared to control group: effectively reduced
  dose dependence of therapeutic effect on alopecia lesion area: concentration-dependent therapeutic effect was observed
[4]
  serious adverse reactions: No serious adverse reactions were observed
[5]
  adverse reactions (ADR) assessed as having a causal relationship with the investigational drug: 12
  adverse reactions (number of events): 23
  decrease in heart rate after administration: observed in most subjects administered NXC736
  difference in frequency of adverse reactions between dose groups: no significant difference in the frequency of adverse reactions between the dose groups
  serious adverse reactions: No serious adverse reactions were observed
  severity and outcome of adverse reactions: Most adverse reactions were mild and all recovered during the trial period
  subjects with adverse reactions: 9
[6]
  treatment of lymphocyte-mediated diseases in animal experiments: effectively treat
[7]
  elimination in urine: hardly eliminated in urine
[7]; human, in vivo, po, read-out: average elimination half-life (converted)
  half-life: ~10 h
[7]; human, plasma, po, read-out: time to reach peak plasma concentrations
  Tmax: ~1 h
[8]; 20 mg twice daily, 14-day repeated administration
  change in ALC: ≤ 30%
[8]; 40 mg to 80 mg, repeated administrations twice a day
  ALC reduction effect: ≥ 50%
[8]; 60 mg twice-daily administration group or higher, 14 days
  absolute lymphocyte count decrease: up to 70%
[8]; repeated administrations 40 mg
  absolute lymphocyte count after administration compared to before administration: about 43%
[8]; repeated administrations 60 mg
  absolute lymphocyte count after administration compared to before administration: about 32%
[8]; repeated administrations 80 mg
  absolute lymphocyte count after administration compared to before administration: about 36%
[9]; single administration 1 mg
  change in ALC: 16%
[9]; single administration 3 mg
  change in ALC: 27%
[9]; single administration 10 mg
  change in ALC: 27%
[9]; single administration 20 mg
  change in ALC: 25%
[9]; single administration 40 mg
  absolute lymphocyte count after administration compared to before administration: about 68%
[9]; single administration 80 mg
  absolute lymphocyte count after administration compared to before administration: about 54%
[10]
  binding selectivity among S1P receptor subtypes: selectively binds to S1P1 and S1P4

## C=CC(=O)N1C[C@H](Nc2ncnc3[nH]ccc23)CC[C@@H]1C [Ritlecitinib]
T lymphocytes
  therapeutic effect on alopecia areata: show a therapeutic effect on alopecia areata
